Assay results as given in US8415376B2, “Inhibitors of PI3 kinase” (Amgen Inc., priority 2008, dated 2013).

Legend:
[1] = biological target: T1, PI3Kβ (Homo sapiens, UniProt P42338); assay: In vitro PI3 kinase enzyme assay (PI3K ATP loss), beta; format: biochemical; conditions: average if run more than once
T1 construct: Full length p110 subunits of PI3K α, β and δ, N-terminally labeled with polyHis tag; polyHis (N); made in house; host or cells: Sf9 insect cells (baculovirus)
Experimental: Full length p110 subunits of PI3K α, β and δ, N-terminally labeled with polyHis tag, can be co-expressed with p85 with Baculo virus expression vectors in sf9 insect cells. P110/p85 heterodimers can be purified by sequential Ni-NTA, Q-HP, Superdex-100 chromatography. Purified α, β and δ isozymes can be stored at −20° C. in 20 mM Tris, pH 8, 0.2M NaCl, 50% glycerol, 5 mM DTT, 2 mM Na cholate. […] The γ isozyme can be purified by sequential Ni-NTA, Superdex-200, Q-HP chromatography. The γ isozyme can be stored frozen at −80° C. in NaH2PO4, pH 8, 0.2M NaCl, 1% ethylene glycol, 2 mM β-mercaptoethanol.
In Vitro PI3 Kinase Enzyme Assays (PI3K Atploss)
PI3K enzyme assays (alpha, beta, delta and gamma) can be performed in 25 μL with the above final concentrations of components in white polyproplyene plates. Phosphatidyl inositol phosphoacceptor, PtdIns(4,5)P2 (eg. P4508) can be obtained from Echelon Biosciences, Salt Lake City, Utah. […] Test compounds can be dissolved in DMSO and diluted with three-fold serial dilutions. The compound in DMSO (1 μL) may be added per test well, and the inhibition relative to reactions containing no compound, with and without enzyme can be determined After assay incubation at RT, the reaction can be stopped and residual ATP can be determined by addition of an equal volume of a commercial ATP bioluminescence kit (Perkin Elmer EasyLite, Perkin Elmer, Waltham, Mass.) according to the manufacturer's instructions, and detected using an Analyst GT luminometer.

[2] = test system: phosphorylation of Akt at Ser473; assay: Cell-based phospho-Akt Ser473 assay (HCT116 cell); conditions: HCT 116 human colon carcinoma cells, IGF-1 stimulated; average
Excerpt: Cell-Based Phospho-Akt Ser473 Assay (HCT116 Cell)
This assay determines the ability of a compound to inhibit the phosphorylation of […] in Akt using a MSD based sandwich immunoassay (Meso Scale Detection, Meso Scale Discovery (MSD), Gaithersburg, Md.). HCT 116 human colon carcinoma cell lines can be grown in McCoy's 5A growth medium (GIBCO, Carlsbad, Calif.) containing 10% FBS (GIBCO, Carlsbad, Calif.) and X1 Penicillin-streptomycin-glutamine (GIBCO, Carlsbad, Calif.). Prior to the assay, cells can be detached from the culture flask with trypsin, and re-suspended in complete media to give a final concentration of 1.6×10^5 cells per mL. Aliquots (100 μl) of the HCT116 cell suspension can be seeded into each well of a 96 well tissue culture plate to give a final density of 16,000 cells per well. Cells can then be incubated overnight at 37° C.
The following day the cells can be treated with serially diluted test compounds and incubated for 2 hours at 37° C. The culture media on the HCT 116 cells can be replaced with 189 μL McCoys media, supplemented with 0.1% BSA (ICN Biomedicals, Inc., Costa Mesa, Calif.). Compounds can be prepared as either 10 mM or 0.5 mM stock solutions in DMSO, and serially diluted 3 fold in a 10-point dose-response curve to give final concentrations that are 200-fold greater than the desired final test concentration. Aliquots (1 μL) of serially-diluted compounds can be transferred to 96 well tissue culture plates containing the HCT 116 cells. […] As a maximum response control, wells can contain 0.5% DMSO in place of compound. The plates can be mixed at 700 rpm for 2 min to ensure even distribution of the test compound and incubated for 2 hours at 37° C. Cells can then be stimulated with insulin-like growth factor 1 (Sigma, St Louis, Mo.) at final concentration of 100 ng/ml for 15 minutes at 37° C. The media can then be removed and the cells treated with 80 μL cell-lysis buffer (MSD) containing a cocktail of protease and phosphatase inhibitors for one hour at 4° C.
25 μL Cell lysate can then be transferred to pre-blocked MSD assay plates pre-coated with a capture antibody specific for Akt, and the plates can be incubated for 2 hours at room temperature. The cell lysates can then be removed and plates can then be washed four times with 200 μl per well of Tris wash buffer (500 mM Tris, PH 7.5, 1.5 M NaCl, 0.2% Tween-20). Subsequently cells can be incubated for 1 hour at room temperature with a 25 μL solution containing the detection antibody, anti-phospho Akt (Ser 473) labeled with an electrochemiluminescent compound (Meso Scale Discovery SULPHO-TAG™ label, MSD, Gaithersburg, Md.). The detection antibody can be removed and plates can then be washed four times with 200 μL per well of Tris wash buffer. An aliquot of 150 μL of diluted MSD read buffer can then be applied to each well, and the electrochemiluminescent signal can be measured using a MSD SECTOR™ plate reader (Meso Scale Discovery, Gaithersburg, Md.). This instrument measures the intensity of emitted light to determine a quantitative measure of phosphorylated Akt in each well. The dose-response data obtained with each compound can be analyzed and the IC50 inhibition of Akt phosphorylation at Ser473 can be calculated.
Activity data for the compounds tested in the PI3K cell based Akt assay is provided in Table 1 under the column heading HCT116 Cell.

[3] = biological target: T2, mTOR (Homo sapiens, UniProt P42345); assay: In vitro mTOR assay (Lanthascreen); format: biochemical; conditions: average if run more than once
T2 construct: purchased Invitrogen (Carlsbad, Calif.)
Excerpt: The Invitrogen (Carlsbad, Calif.) mammalian target of rapamycin (mTOR) Lanthascreen assay can be used to quantitate mTOR kinase activity in an in vitro setting. Active mTOR phosphorylates eukaryotic translation initiation factor 4E binding protein 1 (4E-BP1) on residue threonine 46. This phosphorylation event can be detected with a phospho-specific terbium (Tb) labeled Ab, in turn bringing the Tb label in close proximity to the GFP tagged 4E-BP1 and allowing for time-resolved fluorescence resonance energy transfer (TR-FRET), which correlates 4E-BP1 phosphorylation levels with mTOR kinase activity.
Enzyme reaction buffer can be prepared in deionized water containing 50 mM HEPES (pH 7.5), 0.01% Polysorbate 20, 1 mM EGTA, and 10 mM MnCl2.
Dilutions of the compound to be tested can be prepared in 96-well polypropylene plates (Fisher Scientific, Waltham, Mass.). One row represents a 10-point dose of compound diluted 1:3 in enzyme reaction buffer and 20% dimethyl sulfoxide (DMSO). The top concentration for all compounds is 36 μM. Wells 6 and 12 can serve as the no compound (DMSO only) and high compound controls.
An mTOR substrate solution can prepared in enzyme reaction buffer containing 1600 nM green fluorescent protein tagged eukaryotic translation initiation factor 4E binding protein 1 (GFP-4E-BP1) (Invitrogen, Carlsbad, Calif.) and 28 uM adenosine triphosphate (ATP) (Calbiochem, Gibbstown, N.J.).
mTOR enzyme (Invitrogen, Carlsbad, Calif.) can be diluted in enzyme reaction buffer to a working concentration of 100 ng/mL.
The enzyme assay can be run in 384 well low volume assay plates (Corning, Corning, N.Y.). 2.5 uL of substrate solution containing GFP-4E-BP1 and ATP can be added to appropriate wells in the assay plate followed by 2.5 μL of compound dilutions. 5 μL of appropriately diluted mTOR enzyme can be added and the reaction allowed to proceed for 1 hour at room temperature. Final reagent concentrations in the enzyme assay are 50 ng/mL mTOR, 400 nM GFP-4E-BP1, and 7 μM ATP.
The enzyme assay can be terminated upon the addition of 10 μL of 20 mM EDTA and 4 nM Tb-labeled anti-phospho-4E-BP1 [T46] antibody (Invitrogen, Carlsbad, Calif.). The assay plate can then be incubated at room temperature for 1 hour and results read on a Tecan Safire II plate reader (Tecan, Männedorf, Switzerland).

T1 sequence (P42338 whole entry): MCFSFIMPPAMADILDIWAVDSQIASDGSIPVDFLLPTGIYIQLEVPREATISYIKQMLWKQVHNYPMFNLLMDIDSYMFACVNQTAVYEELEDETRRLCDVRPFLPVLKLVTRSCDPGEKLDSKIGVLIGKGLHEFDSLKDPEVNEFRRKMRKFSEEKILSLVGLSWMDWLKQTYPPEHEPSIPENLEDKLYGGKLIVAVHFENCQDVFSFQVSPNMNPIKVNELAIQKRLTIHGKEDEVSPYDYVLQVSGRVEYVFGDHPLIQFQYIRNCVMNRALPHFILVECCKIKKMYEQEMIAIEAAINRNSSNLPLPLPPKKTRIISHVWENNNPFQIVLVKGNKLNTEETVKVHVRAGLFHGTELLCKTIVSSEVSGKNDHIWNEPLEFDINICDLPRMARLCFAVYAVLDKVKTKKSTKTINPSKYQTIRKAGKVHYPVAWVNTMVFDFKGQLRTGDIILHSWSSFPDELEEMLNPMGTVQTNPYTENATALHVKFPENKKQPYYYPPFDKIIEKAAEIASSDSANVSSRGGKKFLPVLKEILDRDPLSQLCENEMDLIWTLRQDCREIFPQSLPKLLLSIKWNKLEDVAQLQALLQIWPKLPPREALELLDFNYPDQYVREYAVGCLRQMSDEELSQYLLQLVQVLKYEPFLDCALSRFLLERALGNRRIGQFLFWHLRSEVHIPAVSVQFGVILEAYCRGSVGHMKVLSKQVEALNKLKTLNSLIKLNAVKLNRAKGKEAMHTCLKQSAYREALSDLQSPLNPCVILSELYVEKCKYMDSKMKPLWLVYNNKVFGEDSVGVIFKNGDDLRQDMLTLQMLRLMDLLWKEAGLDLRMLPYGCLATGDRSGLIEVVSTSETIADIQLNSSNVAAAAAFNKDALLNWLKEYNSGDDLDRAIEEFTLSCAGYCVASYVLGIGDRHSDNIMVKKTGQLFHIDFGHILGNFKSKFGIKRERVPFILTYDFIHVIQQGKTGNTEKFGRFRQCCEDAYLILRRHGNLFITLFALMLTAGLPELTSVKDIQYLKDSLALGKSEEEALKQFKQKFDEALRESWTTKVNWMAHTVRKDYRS
T1 sequence (P27986 whole entry partner): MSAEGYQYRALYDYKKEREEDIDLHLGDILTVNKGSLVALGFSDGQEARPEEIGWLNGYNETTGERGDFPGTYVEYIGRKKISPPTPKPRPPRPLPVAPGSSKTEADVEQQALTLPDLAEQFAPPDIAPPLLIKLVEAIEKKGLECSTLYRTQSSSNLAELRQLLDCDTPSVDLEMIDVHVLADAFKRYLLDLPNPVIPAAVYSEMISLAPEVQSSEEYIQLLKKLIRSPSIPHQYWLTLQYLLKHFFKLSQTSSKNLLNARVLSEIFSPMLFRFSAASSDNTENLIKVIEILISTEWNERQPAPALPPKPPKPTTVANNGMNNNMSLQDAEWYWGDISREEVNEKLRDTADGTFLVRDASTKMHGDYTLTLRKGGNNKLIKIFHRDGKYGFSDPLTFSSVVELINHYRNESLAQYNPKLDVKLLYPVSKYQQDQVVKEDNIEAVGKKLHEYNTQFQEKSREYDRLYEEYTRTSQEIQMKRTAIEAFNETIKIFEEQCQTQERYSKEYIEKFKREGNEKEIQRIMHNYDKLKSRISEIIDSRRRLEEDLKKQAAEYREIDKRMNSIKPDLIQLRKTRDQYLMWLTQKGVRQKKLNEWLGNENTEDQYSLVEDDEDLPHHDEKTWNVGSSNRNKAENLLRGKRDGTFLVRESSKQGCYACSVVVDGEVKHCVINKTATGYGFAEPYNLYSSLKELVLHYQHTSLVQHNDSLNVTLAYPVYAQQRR
T2 sequence (P42345 1360-2549 limits assumed): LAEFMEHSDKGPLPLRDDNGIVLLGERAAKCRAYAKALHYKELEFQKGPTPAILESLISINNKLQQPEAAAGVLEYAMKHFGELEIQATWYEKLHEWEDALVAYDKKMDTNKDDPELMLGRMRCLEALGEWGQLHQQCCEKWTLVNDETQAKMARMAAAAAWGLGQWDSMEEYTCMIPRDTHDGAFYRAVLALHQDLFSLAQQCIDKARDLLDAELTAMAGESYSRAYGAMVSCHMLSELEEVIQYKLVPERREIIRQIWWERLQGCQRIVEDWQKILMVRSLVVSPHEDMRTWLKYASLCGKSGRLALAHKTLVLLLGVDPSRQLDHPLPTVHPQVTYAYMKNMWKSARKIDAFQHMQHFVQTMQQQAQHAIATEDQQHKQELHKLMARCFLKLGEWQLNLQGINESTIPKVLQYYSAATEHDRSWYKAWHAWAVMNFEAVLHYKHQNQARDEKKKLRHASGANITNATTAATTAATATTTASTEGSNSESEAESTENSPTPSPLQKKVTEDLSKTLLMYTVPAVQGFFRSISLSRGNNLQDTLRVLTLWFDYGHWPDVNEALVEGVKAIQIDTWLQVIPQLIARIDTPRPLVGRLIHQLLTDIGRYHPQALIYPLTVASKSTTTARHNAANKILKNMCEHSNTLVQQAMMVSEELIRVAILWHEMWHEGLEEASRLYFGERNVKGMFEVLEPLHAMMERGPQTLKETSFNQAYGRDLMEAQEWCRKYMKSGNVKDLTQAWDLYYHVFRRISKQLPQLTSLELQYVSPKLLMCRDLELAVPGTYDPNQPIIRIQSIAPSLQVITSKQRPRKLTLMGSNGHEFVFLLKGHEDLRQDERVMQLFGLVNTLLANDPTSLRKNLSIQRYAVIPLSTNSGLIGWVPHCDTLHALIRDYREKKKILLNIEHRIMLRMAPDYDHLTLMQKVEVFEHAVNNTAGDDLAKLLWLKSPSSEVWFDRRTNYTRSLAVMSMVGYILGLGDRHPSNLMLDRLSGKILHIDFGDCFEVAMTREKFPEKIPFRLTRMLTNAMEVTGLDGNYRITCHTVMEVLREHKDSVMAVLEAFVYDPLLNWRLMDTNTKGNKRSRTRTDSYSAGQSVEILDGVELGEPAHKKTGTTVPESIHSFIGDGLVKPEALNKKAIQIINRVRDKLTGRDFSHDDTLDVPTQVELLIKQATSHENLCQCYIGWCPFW

Structure (SMILES)	IC50 [1] [µM]	IC50 [2] [µM]	IC50 [3] [µM]
O=S(=O)(Nc1cc(-c2ccc3nccc(N4CCCCC4)c3c2)cnc1Cl)c1ccc(F)cc1 [Example 24, N-(2-chloro-5-(4-(1-piperidinyl)-6-quinolinyl)-3-pyridinyl)-4-fluorobenzenesulfonamid]	0.0184	0.159	
CN(C)c1ccnc2ccc(-c3cnc(Cl)c(NS(=O)(=O)c4ccc(F)cc4)c3)cc12 [Example 97, N-(2-chloro-5-(4-(dimethylamino)-6-quinolinyl)-3-pyridinyl)-4-fluorobenzenesulfonamide]			0.111
COCCNc1cnc2ccc(-c3cnc(Cl)c(NS(=O)(=O)c4ccc(F)cc4)c3)cc2n1 [Example 73, N-(2-chloro-5-(3-((2-methoxyethyl)amino)-6-quinoxalinyl)-3-pyridinyl)-4-fluorobenzenesulfonamide]	0.0334	0.0595	
O=S(=O)(Nc1cc(-c2ccc3ncc(N4C[C@H]5CC[C@H](CC5)C4)nc3c2)cnc1Cl)c1ccc(F)cc1 [Example 62, N-(5-(3-(3-azabicyclo[3.2.2]non-3-yl)-6-quinoxalinyl)-2-chloro-3-pyridinyl)-4-fluorobenzenesulfonamide]	0.343	0.263	
COc1nc(-c2cnc(Cl)c(NS(=O)(=O)c3ccc(F)cc3)c2)cc2cccnc12 [Example 76, N-(2-Chloro-5-(8-methoxy-1,7-naphthyridin-6-yl)pyridin-3-yl)-4-fluorobenzenesulfonamide]		0.806	
O=S(=O)(Nc1cc(-c2ccc3ncc(NCCc4ccccc4)nc3c2)cnc1Cl)c1ccc(F)cc1 [Example 64, N-(2-chloro-5-(3-((2-phenylethyl)amino)-6-quinoxalinyl)-3-pyridinyl)-4-fluorobenzenesulfonamide]	0.0597	0.188	
O=S(=O)(Nc1cc(-c2ccc3ncc(NCCN4CCCCC4)nc3c2)cnc1Cl)c1ccc(F)cc1 [Example 61, N-(2-chloro-5-(3-((2-(1-piperidinyl)ethyl)amino)-6-quinoxalinyl)-3-pyridinyl)-4-fluorobenzenesulfonamide]	0.0155	0.0515	
COc1ncccc1-c1ccnc2ccc(-c3cnc(Cl)c(NS(=O)(=O)c4ccc(F)cc4)c3)cc12 [Example 35, N-(2-chloro-5-(4-(2-methoxy-3-pyridinyl)-6-quinolinyl)-3-pyridinyl)-4-fluorobenzenesulfonamide]	0.0212	0.0548	
O=S(=O)(Nc1cc(-c2ccc3ncc(N4CCOCC4)nc3c2)cnc1Cl)c1ccc(F)cc1 [Example 20, N-(2-chloro-5-(3-(4-morpholinyl)-6-quinoxalinyl)-3-pyridinyl)-4-fluorobenzenesulfonamide]		0.0062	
O=S(=O)(Nc1cc(-c2ccc3nccnc3c2)cnc1Cl)c1ccc(F)cc1 [Example 6, N-(2-chloro-5-(6-quinoxalinyl)-3-pyridinyl)-4-fluorobenzenesulfonamide]	0.0254	1.59	
COC1CCN(c2cnc3ccc(-c4cnc(Cl)c(NS(=O)(=O)c5ccc(F)cc5)c4)cc3n2)CC1 [Example 69, N-(2-chloro-5-(3-(4-methoxy-1-piperidinyl)-6-quinoxalinyl)-3-pyridinyl)-4-fluorobenzenesulfonamide]	0.0344	0.0526	
CN(Cc1ccccc1)c1cnc2ccc(-c3cnc(Cl)c(NS(=O)(=O)c4ccc(F)cc4)c3)cc2n1 [Example 65, N-(5-(3-(benzyl(methyl)amino)-6-quinoxalinyl)-2-chloro-3-pyridinyl)-4-fluorobenzenesulfonamide]	0.0303	0.279	
O=S(=O)(Nc1cc(-c2ccc3ncccc3n2)cnc1Cl)c1ccc(F)cc1 [Example 41, N-(2-chloro-5-(1,5-naphthyridin-2-yl)-3-pyridinyl)-4-fluorobenzenesulfonamide]	0.0597	0.629	
COCCOc1ccnc2ccc(-c3cnc(Cl)c(NS(=O)(=O)c4ccc(F)cc4)c3)cc12 [Example 31, N-(2-chloro-5-(4-(2-methoxyethoxy)-6-quinolinyl)-3-pyridinyl)-4-fluorobenzenesulfonamide]	0.0144	0.0252	
COCCNc1ccnc2ccc(-c3cnc(Cl)c(NS(=O)(=O)c4ccc(F)cc4)c3)cc12 [Example 98, N-(2-chloro-5-(4-((2-methoxyethyl)amino)-6-quinolinyl)-3-pyridinyl)-4-fluorobenzenesulfonamide]			1.16
COCCN(C)c1cnc2ccc(-c3cnc(Cl)c(NS(=O)(=O)c4ccc(F)cc4)c3)cc2n1 [Example 55, N-(2-chloro-5-(3-((2-methoxyethyl)(methyl)amino)-6-quinoxalinyl)-3-pyridinyl)-4-fluorobenzenesulfonamide]	0.0207	0.064	
CC(C)N1CCN(c2ccnc3ccc(-c4cnc(Cl)c(NS(=O)(=O)c5ccc(F)cc5)c4)cc23)CC1 [Example 25, N-(2-chloro-5-(4-(4-(1-methylethyl)-1-piperazinyl)-6-quinolinyl)-3-pyridinyl)-4-fluorobenzenesulfonamide]	0.0119	0.0189	
O=S(=O)(Nc1cc(-c2ccc3nccc(N4CCOCC4)c3c2)cnc1Cl)c1ccc(F)cc1 [Example 1, N-(2-chloro-5-(4-(4-morpholinyl)-6-quinolinyl)-3-pyridinyl)-4-fluorobenzenesulfonamide]		0.0174	
O=S(=O)(Nc1cc(-c2ccc3ncc(NCC4CCCCC4)nc3c2)cnc1Cl)c1ccc(F)cc1 [Example 70, N-(2-chloro-5-(3-((cyclohexylmethyl)amino)-6-quinoxalinyl)-3-pyridinyl)-4-fluorobenzenesulfonamide]	0.0532	0.151	
O=S(=O)(Nc1cc(-c2ccc3nccc(Cl)c3c2)cnc1Cl)c1ccc(F)cc1 [Example 2, N-(2-chloro-5-(4-chloro-6-quinolinyl)-3-pyridinyl)-4-fluorobenzenesulfonamide]	0.0093	0.109	
